Data on 7 compounds can be found in US20060121449A1, “Method for selection of compounds which inhibit clonal cell growth and use thereof” (priority 2002, published 2006).

SMILES strings stand for the structures. Entries after “also recorded” stand apart in the source; their conditions may differ.

Data set [1] deals with polyoma virus transformed BHK21/c13 cells, clone S100T1. The data set is described as follows: Clonal test: clonal growth of S100T1 cells in soft agar (Exp 2, 4, 6, 15, 16). The data set is classed as cell-based, hamster. The protocol: The clonal test comprises: • 1. seeding cells in soft agar optionally containing growth factor(s); • 2. handling or incubation of special gels (e.g. ultra low gelling temperature agarose), including the production of cell density gradients. • 3. incubating in suitable temperature and atmosphere and; • 4. regular monitoring of the cells and development of clones.
The clonal test can be directed in fluid medium or in soft agar medium. Usually only transformed cells will form clones in soft agar.
After seeding and mixing, the tubes were placed in the refrigerator for about 1 hour to consolidate the ultra low melting point agarose.
120000 S100T1 cells of a polyoma virus transformed BHK21/c13 cell line, were seeded in 1 ml soft agar medium in Falcon 50 ml centrifuge tubes. […] On the top of the agar layer 0.5 ml fluid medium was added.
Agar cultures were prepared in wells of 24 well Falcon tissue culture plate. […] Insulin (Actrapid, Novo) was added in a concentration of 0.1 i.u./ml to BHK21/c13 cell cultures only.
The cells were all single cells. Each well received 32000 cells (Table 4). Plate: 24 wells Falcon tissue culture plate received a bottom layer composed as in Table 3:
The cells were all single cells.
The wells contained two layers, each of 0.3 ml agar.
The agarose was added to double distilled water and solved by heating in micro oven.

For data set [2], the system named is polyoma virus transformed BHK21/c13 cells, line S100T1. In words: Collocation inhibition test: clonal growth in sparsely and densely seeded areas of a cell density gradient of S100T1 cells in soft agar (Exp 13, 17, 19-26).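 For Clonal growth, H high density area of cell gradient, High: grades rise with clonal growth.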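 For Clonal growth, H high density area of cell gradient, Low: grades rise with clonal growth.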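 For Clonal growth, H high density area of cell gradient, Medium: grades rise with clonal growth.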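 For Clonal growth, L low density area of cell gradient, High: grades rise with clonal growth and minus or plus-minus means none.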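 For Clonal growth, L low density area of cell gradient, Low: grades rise with clonal growth and minus or plus-minus means none.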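 For Clonal growth, L low density area of cell gradient, Medium: grades rise with clonal growth and minus or plus-minus means none.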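 For all read-outs here: soft agar cultures in 24-well plates with a cell density gradient in the top layer, compounds applied from DMSO stocks, clonal growth scored in sparse versus dense areas.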 The settings on record: for Significance: Exp 17 day 14; for Effect on clonal growth and toxicity: 117000 S100T1 cells/well; for Clonal growth, H high density area of cell gradient, High / Clonal growth, L low density area of cell gradient, High / Clonal growth, H high density area of cell gradient, Low / Clonal growth, L low density area of cell gradient, Low / Clonal growth, H high density area of cell gradient, Medium / Clonal growth, L low density area of cell gradient, Medium / Effect on cell cloning in soft agar: preliminary results; for Clonal growth, H high density area of cell gradient, High / Clonal growth, L low density area of cell gradient, High / Clonal growth, H high density area of cell gradient, Low / Clonal growth, L low density area of cell gradient, Low / Clonal growth, H high density area of cell gradient, Medium / Clonal growth, L low density area of cell gradient, Medium: Exp 13-18, 21-26; for Clonal growth, H high density area of cell gradient, High / Clonal growth, L low density area of cell gradient, High: high concentration; for Clonal growth, H high density area of cell gradient, Low / Clonal growth, L low density area of cell gradient, Low: low concentration; for Clonal growth, H high density area of cell gradient, Medium / Clonal growth, L low density area of cell gradient, Medium: medium concentration; for Effect on cell cloning in soft agar: in words.
Experimental: The cells should be grown in a top agar layer to avoid growth on the bottom surface. […] Both densely seeded and sparsely seeded areas were photographed.
Cells: The polyoma virus transformed offspring of BHK21/c13, S100T1, was grown on 75 cm^2 flasks on Eagles medium with 5% foetal calf serum. […] Foetal calf serum (0.7 ml) was added to each harvest. After low speed centrifugation the supernatant was discarded and the cells were dispersed in 1 ml FBS.
The concentration of ultra low gelling temperature agarose (Sigma) of the top agar layer with cells was also 0.8%. […] The addition of cells was performed at the same side of the wells in order to create similar cell density gradients. Finally the top layer agar was consolidated in the refrigerator.
After that it was incubated at 37 degrees in 5% CO2 atmosphere.
Agar cultures were prepared in Falcon 24 well tissue culture plate. Each well contained two agar layers of 0.3 ml.
Agar cultures were prepared in wells of Falcon 24 well tissue culture plate. Each contained two agar layers of 0.3 ml. […] The medium contained Eagles MEM and 10% foetal bovine serum (FBS).
The compounds were first solved in DMSO in 20 mM concentration and then diluted in medium. The top layer needed 60-90 minutes in the refrigerator for solidification before incubation in 37° C. with 5% CO2 atmosphere.
In this experiment the inhibitor was added to the bottom layer in order to get an easier way for making the cell density gradient. One side of the Falcon 24 well plate was elevated 12 degrees in the refrigerator for 60-90 minutes to solidify the bottom layer in an oblique position When then solidifying the cell containing top soft agar layer in horizontal position, the cell gradient constantly became good across the well. […] Another 90 minutes were spent in the refrigerator to consolidate the soft agar layer with cells in a horizontal position. Both layers contained 0.8% agarose, Eagles MEM and 10% FBS.
Tilting the plate 12 degrees when solidifying the bottom layer with the drug and casting the top layer with cells horizontally made a stable cell gradient.
The indicated compounds were added to soft agar cultures of the polyoma virus transformed cell line S100T1 of BHK21/c13 cells (Table 1). Agar cultures were prepared in wells of a Falcon 24 well tissue culture plate. The wells contained two agar layers of 0.3 ml. […] The bottom medium was identical, but without cells.
The compounds were first solved in DMSO in 20 mM concentration and then diluted in bottom medium. The agar layers needed 60-90 minutes in the refrigerator for consolidation before incubation at 37° C. in 5% CO2 atmosphere.

Setting [3] is: Exp 15, 32000 S100T1 cells/well.

On to `O=C1NC(=O)C(c2ccccc2)(c2ccccc2)N1` [Diphenhydantoin], for which the “Effect on clonal growth at 10-100 μM” value in data set [1] (setting [3]) is on record as “did not inhibit clonal growth significantly”.
For the compound `CC(C)Cc1ccc(C(C)C(=O)O)cc1` (centres unmarked) [Ibuprofen], in data set [1] (setting [3]), the “Effect on clonal growth at 100 μM” value is “insignificant inhibition”. Moreover, the Significance of results in data set [1] (Exp 16, read after 14 days, Ibuprofen No 8, ca. 223 μM) is listed as “possible”. Further, the Significance entry in data set [1] (Exp 16 day 14, Ibuprofen No 8, 215 μM) was “possible”; in data set [1] (Exp 16 day 14, Ibuprofen No 8, 464 μM, doubtful because the solvent DMSO might be inhibiting), “doubtful*”; in data set [1] (Exp 16 day 21, Ibuprofen No 8, 215 μM), “probable”; in data set [1] (Exp 16 day 21, Ibuprofen No 8, 464 μM, *see conclusion (DMSO)) it was “doubtful*”. The Growth entry is “(+)” in data set [1] (Exp 16 day 14, Ibuprofen No 8, 215 μM in wells); “(+))” in data set [1] (Exp 16 day 14, Ibuprofen No 8, 464 μM in wells); “(+))” in data set [1] (Exp 16 day 21, Ibuprofen No 8, 215 μM in wells); “(+))” in data set [1] (Exp 16 day 21, Ibuprofen No 8, 464 μM in wells). Also, the “Anti-clonal effect, summary of Exp 15” value in data set [1] (S100T1 in soft agar) is “showed possible clonal inhibition at low”. The “Anti-clonal effect, summary of Exp 16” value in data set [1] (S100T1 in soft agar) was “Ibuprofen and Naproxen possibly inhibited and Acetyl”.
Regarding `COc1cc2c(c(OC)c1OC)-c1ccc(OC)c(=O)cc1[C@@H](NC(C)=O)CC2` [Colchicin], the “Control of metastatic cells leaving tumour” value in data set [2] (ability of cells to leave a tumour, grow and infiltrate locally or grow in sparsely seeded areas, concluded from Exp 17) is on record as “probably not”. Besides, in data set [2] (single cells or very few cells spread to distant sites, concluded from Exp 17), the “Control of settlement of metastatic cells” value is recorded as “partly”. Further, the “Toxicity for body or dense cell populations” value in data set [2] (supposed main advantages or disadvantages if used in cancer treatment, concluded from Exp 17) was “none or small”. Besides, the “Tolerating long duration of treatment” value in data set [2] (supposed, if used in cancer treatment) is recorded as “yes”.
Turning to `C[S+](C)[O-]` [DMSO], the “Effect on formation of clones at 4.7%” value in data set [2] (Exp 17) is “inhibited formation of clones, but not completely”. Further, the “Effect on formation of clones at 29.2 μl/700 μl or 4%” value in data set [2] (Exp 17) is recorded as “inhibited formation of clones, but not completely”. In addition, the “Clonal growth, results read on the day 14” value in data set [2] (Exp 17, a: close to densely seeded cell areas, Low: Colchicine 0.1, Podophyllotoxin 0.3, Etoposide 20, 4-OH—OPB 0.67 μM in wells, DMSO 1.16 μl) was “++”; in data set [2] (Exp 17, a: close to densely seeded cell areas, Medium: Colchicine 0.3, Podophyllotoxin 0.9, Etoposide 60, 4-OH—OPB 2 μM in wells, DMSO 6.8 μl), “++”; in data set [2] (Exp 17, b: sparsely seeded areas in the same agar culture, Low: Colchicine 0.1, Podophyllotoxin 0.3, Etoposide 20, 4-OH—OPB 0.67 μM in wells, DMSO 1.16 μl), “++”. Further, the “Concentration up to which growth was approximately unaffected” value in data set [2] (Exp 17, soft agar cultures of S100T1) was “up to 1%”. For the same compound, the “Growth inhibition at concentrations administered along with the test substances” value in data set [2] (Exp 19) is listed as “did not show growth inhibition”. The Significance result in data set [2] (a: close to densely seeded cell areas, High: Colchicine 1, Podophyllotoxin 3, Etoposide 200, 4-OH—OPB 6.7 μM in wells, DMSO 29.2 μl) is reported as “Probably”; in data set [2] (a: close to densely seeded cell areas, Low: Colchicine 0.1, Podophyllotoxin 0.3, Etoposide 20, 4-OH—OPB 0.67 μM in wells, DMSO 1.16 μl), “No”; in data set [2] (a: close to densely seeded cell areas, Medium: Colchicine 0.3, Podophyllotoxin 0.9, Etoposide 60, 4-OH—OPB 2 μM in wells, DMSO 6.8 μl), “No”; in data set [2] (b: sparsely seeded areas, High: Colchicine 1, Podophyllotoxin 3, Etoposide 200, 4-OH—OPB 6.7 μM in wells, DMSO 29.2 μl) it was “Yes”; in data set [2] (b: sparsely seeded areas, Low: Colchicine 0.1, Podophyllotoxin 0.3, Etoposide 20, 4-OH—OPB 0.67 μM in wells, DMSO 1.16 μl) it was “No”; in data set [2] (b: sparsely seeded areas, Medium: Colchicine 0.3, Podophyllotoxin 0.9, Etoposide 60, 4-OH—OPB 2 μM in wells, DMSO 6.8 μl), “No”.
In the case of `CN(Cc1cnc2nc(N)nc(N)c2n1)c1ccc(C(=O)N[C@@H](CCC(=O)O)C(=O)O)cc1` [methotrexate, Methotrexate, reference compound], the Effect on growth result in data set [2] (Exp 23, 180000 S100T1 cells/well) is reported as “did not show significant growth inhibition at all”. For the same compound, the Clonal growth entry was “+(+)” in data set [2] (Experiment 23, A (area with high cell density), High concentration, 48 hours); “++” in data set [2] (Experiment 23, A (area with high cell density), Low concentration, 48 hours); “++” in data set [2] (Experiment 23, A (area with high cell density), Medium concentration, 48 hours); “+” in data set [2] (Experiment 23, B (area with low cell density), High concentration, 48 hours); “+” in data set [2] (Experiment 23, B (area with low cell density), Low concentration, 48 hours); “+(+)” in data set [2] (Experiment 23, B (area with low cell density), Medium concentration, 48 hours).
Turning to `Nc1ccn([C@@H]2O[C@H](CO)[C@@H](O)[C@@H]2O)c(=O)n1` [Cytarabin, reference compound], the “Effect on clonal growth and toxicity” value in data set [2] (Exp 21) was “significant toxic effect at dosage that showed significant inhibition of clonal growth; also recorded: incomplete inhibition and signs of toxicity”. The “Effect on clonal growth and toxicity” value in data set [2] (Exp 21, listed as Cytarabine) is “incomplete inhibition of clonal growth and significant toxicity”. In addition, in data set [2] (Exp 21, 117000 cells per well, Low concentration (see figure), H: area with high cell density), the Clonal growth entry was “++”. Further, the Clonal growth entry in data set [2] (Exp 21, High concentration, H: area with high cell density) is given as “(+)”. Further, the Clonal growth result in data set [2] (Exp 21, High concentration, L: area with low cell density) is “(+)”. Besides, the Clonal growth result in data set [2] (Exp 21, Low concentration, L: area with low cell density) is “+”. For the same compound, the Clonal growth result in data set [2] (Exp 21, Medium concentration, H: area with high cell density) was “++”. Also, the Clonal growth entry in data set [2] (Exp 21, Medium concentration, L: area with low cell density) is given as “+”. Further, in data set [2], the “Clonal growth, H high density area of cell gradient, High” value is “(+)”; the “Clonal growth, L low density area of cell gradient, High” value is on record as “(+)”; the “Clonal growth, H high density area of cell gradient, Low” value is reported as “++”; the “Clonal growth, L low density area of cell gradient, Low” value was “+”. For the same compound, in data set [2], the “Clonal growth, H high density area of cell gradient, Medium” value is on record as “++”; the “Clonal growth, L low density area of cell gradient, Medium” value is on record as “+”; the “Effect on cell cloning in soft agar” value is “Incomplete inhibition of clonal growth”.
Consider `COc1c(C)c2c(c(O)c1C/C=C(\C)CCC(=O)O)C(=O)OC2` [Mycophenolic acid, reference compound], for which, in data set [2], the “Clonal growth, H high density area of cell gradient, High” value is listed as “(+)”; the “Clonal growth, L low density area of cell gradient, High” value is “(+)”; the “Clonal growth, H high density area of cell gradient, Low” value is “(+)”; the “Clonal growth, L low density area of cell gradient, Low” value is listed as “(+)”. Moreover, in data set [2], the “Clonal growth, H high density area of cell gradient, Medium” value is reported as “(+)”; the “Clonal growth, L low density area of cell gradient, Medium” value is listed as “(+)”; the “Effect on cell cloning in soft agar” value was “Less growth in both high and low”.
